Measurements: ChEMBL document CHEMBL1131654 (Bioorg Med Chem Lett, 1998)

How the values were obtained:
[1] = biological target: T1, 5-hydroxytryptamine receptor 1B (Homo sapiens, UniProt P28222); experiment: In vitro binding affinity was determined towards cloned human 5-hydroxytryptamine 1B receptor using [3H]5-CT radioligand
[2] = biological target: T1, 5-hydroxytryptamine receptor 1B; conditions: Oryctolagus cuniculus; Saphenous vein
Description: 5-hydroxytryptamine 1B receptor agonist potency determined in rabbit saphenous vein contraction model

[3] = biological target: T1, 5-hydroxytryptamine receptor 1B; experiment: 5-HT1B agonist potency was evaluated as effective dose that induced hypothermia in the guinea-pig upon intraperitoneal administration; type: functional, organism-based; conditions: Cavia porcellus; target entry is the homologue from another species
[4] = biological target: T1, 5-hydroxytryptamine receptor 1B; experiment: Effective concentration determined by measuring inhibition of forskolin-stimulated c-AMP formation at 5-hydroxytryptamine 1B receptor stably transfected in CHO cell lines; type: functional, cell-based
[5] = biological target: 5-hydroxytryptamine receptor 1D (Homo sapiens, UniProt P28221); experiment: In vitro binding affinity was determined towards cloned human 5-hydroxytryptamine 1D receptor using [3H]5-CT radioligand
[6] = biological target: T2, 5-hydroxytryptamine receptor 1A (Homo sapiens, UniProt P08908); experiment: In vitro binding affinity was determined towards cloned human 5-hydroxytryptamine 1A receptor using [3H]8-OH-DPAT radioligand
T2 sequence (P08908 whole entry): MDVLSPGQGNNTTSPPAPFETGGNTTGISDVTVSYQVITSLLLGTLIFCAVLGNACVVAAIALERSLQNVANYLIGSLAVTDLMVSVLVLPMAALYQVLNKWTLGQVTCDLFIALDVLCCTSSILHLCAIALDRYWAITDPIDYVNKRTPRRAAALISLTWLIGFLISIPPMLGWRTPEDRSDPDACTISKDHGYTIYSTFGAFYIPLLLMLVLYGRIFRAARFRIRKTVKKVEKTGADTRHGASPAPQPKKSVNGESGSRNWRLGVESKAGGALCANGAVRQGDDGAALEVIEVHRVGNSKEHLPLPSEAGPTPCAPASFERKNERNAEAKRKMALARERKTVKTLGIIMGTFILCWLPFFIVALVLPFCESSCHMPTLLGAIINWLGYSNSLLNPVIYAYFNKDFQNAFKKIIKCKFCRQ

[7] = biological target: T1, 5-hydroxytryptamine receptor 1B; experiment: 5-hydroxytryptamine 1B receptor agonist potency was evaluated as effective dose that induced hypothermia in the guinea-pig upon intraperitoneal administration; type: functional, organism-based; conditions: Cavia porcellus; target entry is the homologue from another species

T1 sequence (P28222 whole entry): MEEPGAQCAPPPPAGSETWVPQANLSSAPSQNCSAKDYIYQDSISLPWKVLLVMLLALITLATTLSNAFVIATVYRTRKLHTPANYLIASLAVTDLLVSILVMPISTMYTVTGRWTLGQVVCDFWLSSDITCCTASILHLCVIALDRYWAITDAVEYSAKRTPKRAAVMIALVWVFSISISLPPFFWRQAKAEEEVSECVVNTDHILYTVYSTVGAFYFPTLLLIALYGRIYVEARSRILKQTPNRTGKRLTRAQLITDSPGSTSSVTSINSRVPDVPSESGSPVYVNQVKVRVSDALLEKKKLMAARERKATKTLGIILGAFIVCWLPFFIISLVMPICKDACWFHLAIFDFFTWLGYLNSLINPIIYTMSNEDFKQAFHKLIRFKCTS
5-hydroxytryptamine receptor 1D, sequence (P28221 whole entry): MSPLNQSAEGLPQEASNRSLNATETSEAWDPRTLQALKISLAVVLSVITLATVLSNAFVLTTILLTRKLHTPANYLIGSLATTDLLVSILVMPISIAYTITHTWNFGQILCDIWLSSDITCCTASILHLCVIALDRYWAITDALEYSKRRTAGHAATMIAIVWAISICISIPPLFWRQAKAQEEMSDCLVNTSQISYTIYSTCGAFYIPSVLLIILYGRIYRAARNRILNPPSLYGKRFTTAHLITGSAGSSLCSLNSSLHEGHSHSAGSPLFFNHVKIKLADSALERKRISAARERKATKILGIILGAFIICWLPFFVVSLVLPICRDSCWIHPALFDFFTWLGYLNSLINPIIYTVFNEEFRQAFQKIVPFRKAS

In the case of `CN(C)CCc1c[nH]c2ccc(C[C@H]3COC(=O)N3)cc12` [ZOLMITRIPTAN], the Ki [1] is reported as 4200 pM, the pD2 [2] is reported as 6.2 and the ED50 [3] is reported as 3.2 mg/kg. The EC50 [4] was 15700 pM and the Ki [5] was 760 pM.
`CN(C)CCc1c[nH]c2ccc(CS(=O)(=O)N(C)Cc3ccc(CN(C)S(=O)(=O)Cc4ccc5[nH]cc(CCN(C)C)c5c4)cc3)cc12` showed a Ki [1] of 640 pM, a pD2 [2] of 6.6 and a Ki [6] of 17700 pM. The EC50 [4] was 580 pM, the Ki [5] was 890 pM and the ED50 [7] was 1.3 mg/kg.
